These are literature values, as cited in patent US12691078B2, “Stable compositions of functional ingredients and methods of making the same” (Nulixir Inc., priority 2021, dated 2026).

The term logP denotes a log measure of how a compound divides between an organic and an aqueous phase.

The conditions of series [1]: reference solvents n-octanol and water; pH=7 unless stated otherwise; mostly given as approximate (~=).
The conditions of series [2]: ethanol extraction of Golden Seal.

On to `COc1cc2c(c(OC)c1OC)-c1c(cc3c(c1OC)OCO3)CC(C)C(C)C2` (single isomer, unassigned; (-)) [(−)-schisandrin B], for which the logP in series [1] is on record as around 4.

In the case of `COc1cc(/C=C/c2ccccc2)oc(=O)c1` [5,6-dehydrokawain], in series [1], the logP is reported as around 2.9.

In the case of `COC1=CC(=O)OC(/C=C/c2ccc(OC)cc2)C1` (stereo not drawn) [5,6-dihydroyangonin], the logP in series [1] is on record as around 2.5.

Regarding `CC1=C(CO)C(=O)O[C@@H]([C@@H](C)[C@H]2CC[C@H]3[C@@H]4C[C@H](Cl)[C@]5(O)[C@@H](O)C=CC(=O)[C@]5(C)[C@H]4CC[C@]23C)C1` [6a-chloro-5b-hydroxywithaferin A], the logP in series [1] was around 3.2.

Take `COC1=CC(=O)O[C@@H](CCc2ccc3c(c2)OCO3)C1` [7,8-dihydromethysticin]: the logP in series [1] was around 2.2.

`COc1ccc(CCc2cc(OC)cc(=O)o2)cc1` [7,8-dihydroyangonin]: in series [1], the logP is given as around 2.9.

As to `COc1cc(/C=C\c2ccc(OC)c(O)c2)oc(=O)c1` [11-hydroxyyangonin], the logP in series [1] is given as around 2.2.

For the compound `COc1cc2c(c(OC)c1OC)-c1c(cc(OC)c(OC)c1OC)C[C@](C)(O)[C@@H](C)C2` [(+)-schisandrin], the logP in series [1] was around 5.

Regarding `COc1cc2c(c(OC)c1OC)-c1c(cc(OC)c(OC)c1OC)C[C@H](C)[C@H](C)C2` [(−)-schisandrin A], the logP in series [1] is listed as around 3.6.

As to `COc1c2c(cc3c1-c1c(cc4c(c1OC)OCO4)C[C@H](C)[C@H](C)C3)OCO2` [(−)-schisandrin C], in series [1], the logP was around 3.5.

On to `CC(C)=C[C@@H]1CO[C@]23C[C@]4(CO2)[C@H](CC[C@@H]2[C@@]5(C)CC[C@H](O[C@@H]6OC[C@H](O)[C@H](O[C@@H]7O[C@H](CO)[C@@H](O)[C@H](O)[C@H]7O)[C@H]6O[C@@H]6O[C@@H](CO)[C@H](O)[C@H]6O)C(C)(C)[C@@H]5CC[C@]24C)[C@H]3[C@@]1(C)O` [bacopasaponin C], for which the logP in series [1] is around 2.

For `CC(C)=C[C@H]1C[C@](C)(O)[C@@H]2[C@H]3CC[C@@H]4[C@@]5(C)CC[C@H](O[C@@H]6OC[C@H](O)[C@H](O[C@@H]7O[C@H](CO)[C@@H](O)[C@H](O)[C@H]7O)[C@H]6O[C@@H]6O[C@@H](CO)[C@H](O)[C@H]6O)C(C)(C)[C@@H]5CC[C@@]4(C)[C@@]34CO[C@@]2(C4)O1` [bacopaside X], the logP in series [1] is listed as around 2.2.

For the compound `CC(C)=C[C@H]1C[C@](C)(O)[C@H]2[C@H]3CC[C@@H]4[C@@]5(C)CC[C@H](O[C@@H]6O[C@H](CO)[C@@H](O)[C@H](O[C@@H]7O[C@H](CO)[C@@H](O)[C@H](O)[C@H]7O)[C@H]6O[C@@H]6O[C@@H](CO)[C@H](O)[C@H]6O)C(C)(C)[C@@H]5CC[C@@]4(C)[C@@]34CO[C@@]2(C4)O1` [bacoside A3], the logP in series [1] was around 2.1.

On to `COc1ccc2cc3[n+](cc2c1OC)CCc1cc2c(cc1-3)OCO2` [berberine], for which the “solubility in ethanol as a function of water content” value in series [2] is “decreases rapidly with water content”.

Consider `CC(C)=CCC[C@](C)(O[C@@H]1O[C@H](CO[C@@H]2O[C@H](CO)[C@@H](O)[C@H](O)[C@H]2O)[C@@H](O)[C@H](O)[C@H]1O)[C@H]1CC[C@]2(C)[C@@H]1[C@H](O)C[C@@H]1[C@@]3(C)CC[C@H](O[C@@H]4O[C@H](CO)[C@@H](O)[C@H](O)[C@H]4O[C@@H]4O[C@H](CO)[C@@H](O)[C@H](O)[C@H]4O)C(C)(C)[C@@H]3CC[C@]12C` [ginsenoside rb1], for which the logP in series [1] is listed as around −1.

Turning to `CC(C)=CCC[C@](C)(O[C@@H]1O[C@H](CO)[C@@H](O)[C@H](O)[C@H]1O)[C@H]1CC[C@]2(C)[C@@H]1[C@H](O)C[C@@H]1[C@@]3(C)CC[C@H](O)C(C)(C)[C@@H]3[C@@H](O[C@@H]3O[C@H](CO)[C@@H](O)[C@H](O)[C@H]3O)C[C@]12C` [ginsenoside rg1], the logP in series [1] is reported as around 0.8.

For the compound `COc1ccc(C23C=CC(O)CC2N(C)CC3)cc1OC` (stereo not drawn) [mesembrenol], in series [1], the logP is listed as around 2.4.

`COc1ccc([C@@]23C=CC(=O)C[C@@H]2N(C)CC3)cc1OC` [mesembrenone]: in series [1], the logP is listed as around 1.3.

On to `COc1ccc([C@@]23CCC(=O)C[C@@H]2N(C)CC3)cc1OC` [mesembrine], for which, in series [1], the logP was around 1.5.

`COc1nc2c(c(=O)n1C)n(C)c(=O)n2C` [methylliberine]: the logP in series [1] is recorded as around −0.083.

On to `CC(=O)OC1C=CC(=O)N(C(=O)CCc2ccccc2)C1` (stereo not drawn) [pipermethystine], for which the logP in series [1] is around 1.8.

Turning to `COc1cc([C@H]2Oc3cc(O)c4c(=O)c(O)c(-c5ccc(O)cc5)oc4c3O[C@@H]2CO)ccc1O` [rhodiolin], in series [1], the logP is listed as around 2.

In the case of `COc1cc2c(c(OC)c1OC)-c1c(cc(OC)c(OC)c1OC)C[C@](C)(O)[C@@H](C)C2` [schisandrol A], the logP in series [1] was around 3.4.

Turning to `N#C[C@@]1(O[C@@H]2O[C@H](CO)[C@@H](O)[C@H](O)[C@H]2O)C=C[C@@H](O)C1` [tetraphyllin B], the logP in series [1] was around −2.5.

With (R)-kawain, in series [1], the logP is around 2.7.

Regarding bacopaside B, in series [1], the logP is on record as around 2.8.

Take hericerin: the logP in series [1] is around 6.4.

Turning to herinacine A, the logP in series [1] was around 2.5.

Consider schisandroside C, for which the logP in series [1] is on record as around 1.6.

Turning to tortuosomine, the lipophilicity (logP) in series [1] is on record as around 3.
